Columns and labels:
[1] = system: rat small-intestinal brush border membrane vesicles; assay: Inhibitory effect on 33PO4 uptake into rat small-intestinal brush border membrane vesicles (rapid filtration method); format: biochemical; details: 33PO4 uptake into rat small-intestinal BBMVs; test compound 1 µM; reacted for 60 seconds
Method in brief: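 Uptake of ^33PO4 was measured by rapid filtration and liquid scintillation counting of filter-retained vesicles, after quenching with ice-cold 110 mM NaCl/1 mM KH2PO4/10 mM HEPES pH 7.5. Vesicles were brush border membranes from the upper small intestine of female Wistar rats aged 4–5 weeks.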

[2] = system: chronic kidney disease model rat; assay: Suppressive effect on calcium deposition in blood vessel of chronic kidney disease model rat; format: in vivo; details: suppression of calcium deposition in blood vessel (thoracic aorta)
Method: (§1) A group given feed non-supplemented with the test compound was used as a reference pathological group, and a group neither subjected to the kidney removal nor antibody administration and given feed non-supplemented with the test compound was used as a normal group. Fourteen weeks after the start of administration of the test compound, blood was collected from the abdominal aorta and serum was collected. As an indicator of renal damage, serum creatinine concentrations were measured by an enzyme assay (creatinase-sarcosine oxidase-POD method). The rate of suppression of a rise in serum creatinine concentration was determined according to the following expression: Rate (%) of suppression of a rise in serum creatinine concentration = (1−[(Serum creatinine concentration of the test compound−treated pathological group)−(Serum ceatinine concentration of the […])]/[(Serum creatinine concentration of the reference pathological group)−(Serum creatinine concentration of the normal group)]) × 100 [formula]
From the same animal as that in Test Example 7, the thoracic aorta was collected 14 weeks after the start of administration of the test compound, and the dry weight was measured. […]

[3] = system: chronic kidney disease model rat; assay: Suppressive effect on rise in serum creatinine concentration of chronic kidney disease model rat; format: in vivo; details: suppression of a rise in serum creatinine concentration, dosage 0.1% in feed for 14 weeks
Method: as §1
As a result, the test compound was confirmed to have a suppressive effect on a rise in serum creatinine concentration, namely, a suppressive effect on renal damage. […]

[4] = system: chronic kidney disease model rat; assay: Suppressive effect on rise in serum parathyroid hormone concentration of chronic kidney disease model rat; format: in vivo; details: suppression of a rise in serum parathyroid hormone concentration
Method: as §1
Using serum collected from the same animal as that in test example 7 after 14 weeks from the start of administration of the test compound, concentrations of serum parathyroid hormone were measured by the ELISA method. […]

[5] = system: Adenine-induced renal failure rats; assay: Suppressive effect on rise in serum phosphorus concentration by combined use with sevelamer carbonate (adenine-induced renal failure rat); format: in vivo; details: 14 days
Text: Adenine was forcedly administered orally to each Wistar male rat (7-8 weeks old) to impair renal functions and thereby prepare a hyperphosphatemia model (Katsumata K, Kusano K, Hirata M, Tsunemi K, Nagano N, Burke SK, Fukushima N. Sevelamer hydrochloride prevents ectopic calcification and renal osteodystrophy in chronic renal failure rats. Kidney Int. 2003 Aug; 64 (2): 441-50). Each test compound was mixed at a ratio of 0.1% of mass concentration with feed. The animal was fed with a given amount of the feed for 3 days. A group given feed non-supplemented with a test compound was used as a reference pathological group, and an adenine-unadministered group given feed non-supplemented with a test compound was used as a normal group. 3 days after the start of administration of the test compound, blood was collected from the jugular vein, and serum was collected. Serum phosphorus concentrations were measured by the Fiske-Subbarow method. The rate of suppression of a rise in serum phosphorus concentration was determined according to the following expression: Rate (%) of suppression of a rise in serum phosphorus concentration = (1−[(Serum phosphorus concentration of the test compound−treated pathological group)−(Serum phosphorus concentration of the normal group)]/[(Serum phosphorus concentration of the reference pathological group)−(Serum phosphorus concentration of the normal group)]) × 100 [formula]
Adenine-induced renal failure rats were prepared in the same manner as in Test Example 5. […] Serum phosphorus concentrations were measured by the Fiske-Subbarow method. The rate of suppression of a rise in serum phosphorus concentration was determined according to the following expression: Rate (%) of suppression of a rise in serum phosphorus concentration = (1−[(Serum phosphorus concentration of the compound−treated pathological group)−(Serum phorphorus concentration of the normal group)]/[(Serum phosphorus concentration of the reference pathological group)−(Serum phosphorous concentration of the normal group)]) × 100 [formula] […]

[6] = dosage 0.1% in feed for 14 weeks
[7] = dosage 0.3% in feed for 14 weeks

COCCN(C)CCOc1ccc(CN2C(=O)C(C(=O)Nc3ccc(C(F)(F)F)cc3-c3cc(C(F)(F)F)ncn3)=C(O)C3(CCCC3)N2C)c(F)c1F [Example 14, 7-[[2,3-Difluoro-4-[2-[2-methoxyethyl(methyl)amino]ethoxy]phenyl]methyl]-10-hydroxy-6-methyl-8-oxo-N-[4-(trifluoromethyl)-2-[6-(trifluoromethyl)pyrimidin-4-yl]phenyl]-6,7-diazaspiro[4.5]dec-9-ene-9-carboxamide]
Rate of uptake inhibition (%) (1 µM) [1]: 29%
Rate of inhibition (%) [2, 6]: 100%
Rate of inhibition (%) [2, 7]: 100%
Rate of inhibition (%) [3]: 17%
Rate of inhibition (%) [4, 6]: 13%
Rate of inhibition (%) [4, 7]: 67%
Suppression rate of rise in serum phosphorus concentration (%) ([5]; test compound 0.05% by mass in combination with sevelamer carbonate 0.5% by mass in feed): 104%
Suppression rate of rise in serum phosphorus concentration (%) ([5]; test compound 0.05% by mass in feed alone (sevelamer carbonate 0%)): 61%
Suppression rate of rise in serum phosphorus concentration (%) ([5]; test compound 0.1% by mass in feed alone (sevelamer carbonate 0%)): 79%
